{
  "source": "patent US20020082391A1",
  "about": "“Human occludin, its uses and enhancement of drug absorption using occludin inhibitors” (priority 1996, published 2002)",
  "key": {"[1]": {"system": "occludin-transfected fibroblasts (Rat-1 cell clone)", "experiment": "Cell adhesion (suspended cell aggregation) assay, occludin-transfected Rat-1 fibroblasts", "type": "cell-based", "conditions": "peptide at 100 μM", "protocol": "For immunofluorescent localization studies, cells were grown on glass coverslips. […] MDCK cells were transfected and induced with sodium butyrate as described above and stable cells lines were plated and induced as described for immunoblots. Cells were washed with PBS, fixed in 1% paraformaldehyde in PBS, extracted with 0.1% Triton-X 100 and quenched with 50 mM NH4Cl in PBS. In experiments to test the accessibility to the anti-peptide #1 antibody, incubation of the primary antibody was performed without permeabilization of cells with Triton-X 100. […] Cell Adhesion Assay Adhesion of stably transfected cell lines was measured by a modification of the procedure described by Wesseling, J., et al., Mol. Biol. Cell 7:565-577 (1996). […] After 30 minutes, cells were mechanically dissociated, counted and resuspended at a concentration of 2.5×10^5 cells/ml in Ca^2+-Mg^2+-free PBS, 1 mM EDTA and 0.1 mg/ml DNAse. […] At each time point, the number of particles in two 175 ul aliquot of each tube was determined in a Coulter Counter (Hialeah, FL). […] 100% of cells were single at the beginning of all assays, as determined by phase-contrast microscopy. […]\nThe ability of transfected occludin to confer adhesion onto fibroblast cell lines was assessed using a suspended cell aggregation assay (Wesseling, J., et al., Mol. Biol. Cell 7: 565-577 (1996)). […]"}, "[2]": {"system": "Caco-2 cells", "experiment": "Transepithelial electrical resistance of Caco-2 monolayers after low calcium medium", "type": "cell-based, human", "conditions": "Caco-2, peptides at final concentration 100 μM, FIG. 2", "protocol": "FIG. 2 is a graph showing inhibition of occludin-dependent intercellular adhesion using extracellular loop peptides corresponding to the N-terminal half of occludin extracellular loop #1 (peptide 1, SEQ ID NO 3) and the C-terminal half of extracellular loop #1 (peptide 2, SEQ ID NO 4) compared with an irrelevant peptide (peptide 3, SEQ ID NO 6). Caco-2 cells were plated on Falcon transwell cell culture inserts in DMEM supplemented with 10% fetal bovine serum and allowed to attach for 24 hours. Confluent monolayers were washed three times with calcium- and magnesium-free phosphate buffered saline and incubated in low calcium medium (supplemented with 5% dialyzed fetal bovine serum) for 24 hours. Transepithelial electrical ressitance was measured (time 0) and an equal volume of 2× DMEM/20% fetal bovine serum was added to all wells. To some wells, peptides were added with the fresh media. All peptides were added to a final concentration of 100 μM; transepithelial electrical resistance was measured in 3 wells of each treatment condition. Symbols represent the mean and standard deviation of each measurement.\nIntroduction of occludin into fibroblasts causes them to become adhesive. […] FIG. 2 provides data showing this same peptide inhibits transmonolayer electrical resistance in cultured human colonic epithelial cells. Thus, the peptides are occludin inhibitors."}, "[3]": {"system": "occludin-transfected fibroblasts (NRK cell clone, N2occ cells)", "experiment": "Cell adhesion (suspended cell aggregation) assay, occludin-transfected NRK fibroblasts (N2occ)", "type": "cell-based, rat", "conditions": "for inhibition of occludin-induced adhesion: NRK cell clone, peptide at 100 μM, 80 minutes", "protocol": "Peptides were added in equal volumes of PBS at the start of the incubation period; extent of aggregation is shown after 80 minutes of incubation. Loop peptides represent contiguous sequences in the first extracellular loop; the internal peptide has the same pI as loop peptide #1. Peptide sequences are given in the Examples section. One of three experiments with identical results is shown.\nFor immunofluorescent localization studies, cells were grown on glass coverslips. […] MDCK cells were transfected and induced with sodium butyrate as described above and stable cells lines were plated and induced as described for immunoblots. Cells were washed with PBS, fixed in 1% paraformaldehyde in PBS, extracted with 0.1% Triton-X 100 and quenched with 50 mM NH4Cl in PBS. In experiments to test the accessibility to the anti-peptide #1 antibody, incubation of the primary antibody was performed without permeabilization of cells with Triton-X 100. Cells were blocked for 1 hour in PBS plus 2% goat serum, incubated in primary antibodies (anti-VSV-G at 10 ug/ml, guinea pig anti-occludin at 1:250, and anti-ZO-1 at 1:300; affinity-purified anti-peptide #1 antibody at 1:10) for 1 hour, washed and incubated in affinity-purified secondary antibodies (1:100) for 1 hour. Cells were washed, dipped in H2O and mounted in Vectashield (Vector Laboratories). The samples were examined with a Nikon Microfot-FX epifluorescence microscope; photographs were taken with TMAX400 film (Kodak, Rochester, NY) using the automatic exposure setting. Cell Adhesion Assay Adhesion of stably transfected cell lines was measured by a modification of the procedure described by Wesseling, J., et al., Mol. Biol. Cell 7:565-577 (1996). Cell lines were plated and induced with sodium butyrate as described above. Cell layers were rinsed twice with Ca^2+-Mg^2+-free PBS and then incubated for 30 minutes in Ca^2+-Mg^2+-free PBS plus 1 mM EDTA and 0.1 mg/ml DNAse. After 30 minutes, cells were mechanically dissociated, counted and resuspended at a concentration of 2.5×10^5 cells/ml in Ca^2+-Mg^2+-free PBS, 1 mM EDTA and 0.1 mg/ml DNAse. For each condition, the adhesion assay was performed in duplicate in two 50-ml conical tubes on a rotating platform at 80 rpm at 25° C. At each time point, the number of particles in two 175 ul aliquot of each tube was determined in a Coulter Counter (Hialeah, FL). The amount of adhesion was represented by Nt/N0, where N0 was the initial number of particles in each sample (the starting number of single cells), and Nt was the number at each time point. 100% of cells were single at the beginning of all assays, as determined by phase-contrast microscopy. Some experiments were performed in the presence of the peptides described above.\nThe ability of transfected occludin to confer adhesion onto fibroblast cell lines was assessed using a suspended cell aggregation assay (Wesseling, J., et al., Mol. Biol. Cell 7: 565-577 (1996)). All cells were counted as single particles at the beginning of the assay and any decrease in the fraction of particles over the 80 minute assay was the result of aggregates which are excluded by the Coulter Counter. Aggregation was qualitatively confirmed by light microscopic inspection and correlated with results quantified by the Coulter Counter. Immunofluorescence confirmed that ZO-1 and occludin are clustered between adherent cells after the 80 minute assay. […]"}, "[4]": {"molecular_target": "T1, human occludin (human, UniProt Q16625 1-522)", "T1 sequence": "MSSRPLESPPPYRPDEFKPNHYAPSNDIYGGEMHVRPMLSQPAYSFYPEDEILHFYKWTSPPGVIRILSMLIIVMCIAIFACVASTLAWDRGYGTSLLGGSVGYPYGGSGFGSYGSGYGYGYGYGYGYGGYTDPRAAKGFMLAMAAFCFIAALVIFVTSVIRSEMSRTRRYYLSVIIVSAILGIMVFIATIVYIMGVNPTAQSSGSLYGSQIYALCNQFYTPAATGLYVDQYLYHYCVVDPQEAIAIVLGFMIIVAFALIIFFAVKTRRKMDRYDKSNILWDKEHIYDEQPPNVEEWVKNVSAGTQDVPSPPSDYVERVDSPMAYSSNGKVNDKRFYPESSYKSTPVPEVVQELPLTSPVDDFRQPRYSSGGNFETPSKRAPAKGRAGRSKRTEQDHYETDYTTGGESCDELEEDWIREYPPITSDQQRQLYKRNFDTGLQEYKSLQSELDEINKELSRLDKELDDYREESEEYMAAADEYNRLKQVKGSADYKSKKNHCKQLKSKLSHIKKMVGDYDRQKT", "experiment": "cell-based or functional assay"}},
  "data": [
    {"molecule": "CDRGYGTSLLGGSVGYPYGGSGFG [peptide #1]", "values": [
      {"measurement": "inhibition of occludin-induced adhesion", "setting": "[1]", "value": "completely inhibited adhesion"},
      {"measurement": "inhibition of transepithelial (transmonolayer) electrical resistance", "setting": "[2]", "value": "inhibition"},
      {"measurement": "inhibition of occludin-induced adhesion", "setting": "[3]", "value": "completely inhibited adhesion"},
      {"measurement": "reversal of adhesion", "setting": "[3]; peptide at 10 μM", "value": "approximately half"}
    ]},
    {"molecule": "CSYGSGYGYGYGYGYGYGGYTDPR [peptide #2]", "values": [
      {"measurement": "inhibition of occludin-induced adhesion", "setting": "[1]", "value": "completely inhibited adhesion"},
      {"measurement": "inhibition of transepithelial (transmonolayer) electrical resistance", "setting": "[2]", "value": "inhibition"},
      {"measurement": "inhibition of occludin-induced adhesion", "setting": "[3]", "value": "completely inhibited adhesion"},
      {"measurement": "Ki", "setting": "[3]; fibroblast adhesion assay, peptides tested at 1, 10 and 100 μM, read-out: apparent Ki (inhibition of adhesion)", "value": "10 to 100", "unit": "µM"}
    ]},
    {"molecule": "NHYAPSNDIYGGEMVHRPML (peptide construct used in experiments) [internal occludin peptide, reference compound]", "values": [
      {"measurement": "inhibiting occludin-dependent cell adhesion", "setting": "[3]; same concentration range (1, 10 and 100 μM)", "value": "ineffective"}
    ]},
    {"molecule": "CDRGYGTSLLGGSVGYPYGGSGFG", "note": "[peptide #1 (N-terminal half of occludin extracellular loop #1)]", "values": [
      {"measurement": "apparent Ki for inhibition of occludin-induced adhesion", "setting": "[4]", "value": "~10", "unit": "µM"}
    ]}
  ]
}
